Reference: PubChem BioAssay AID248 (DTP/NCI, 2004)
Inconclusive results and toxic doses are left out. Cut-off read from the data, not from the text of the source: active = T/C of 150% or more; inactive = T/C below 125%.

Tested on: L1210 leukemia ip in BDF1 mice, survival T/C
Test: NCI In Vivo Anticancer Drug Screen. Data for tumor model L1210 Leukemia (intraperitoneal) in B6D2F1 (BDF1) mice
Details: endpoint: mean survival time, higher = longer survival
Summary of the method: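 Value reflects the ratio of survival in compound-treated mice to survival in vehicle-treated controls, with both groups carrying the same transplanted tumor.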

[1] = dose: 100.0 mg/kg/injection, schedule: Q01DX001 (ip), vehicle: saline with Tween-80
[2] = dose: 100.0 mg/kg/injection, schedule: Q01DX001 (ip), vehicle: saline
[3] = dose: 200.0 mg/kg/injection, schedule: Q01DX001 (ip), vehicle: saline
[4] = dose: 400.0 mg/kg/injection, schedule: Q01DX001 (ip), vehicle: saline
[5] = dose: 100.0 mg/kg/injection, schedule: Q01DX001 (ip), vehicle: carboxymethylcellulose (CMC)
[6] = dose: 200.0 mg/kg/injection, schedule: Q01DX001 (ip), vehicle: carboxymethylcellulose (CMC)
[7] = dose: 400.0 mg/kg/injection, schedule: Q01DX001 (ip), vehicle: carboxymethylcellulose (CMC)
[8] = dose: 100.0 mg/kg/injection, schedule: Q01DX009 (ip), vehicle: Klucel (hydroxypropylcellulose) (HPC)
[9] = dose: 100.0 mg/kg/injection, schedule: Q04DX003 (ip), vehicle: Klucel (hydroxypropylcellulose) (HPC)
[10] = dose: 200.0 mg/kg/injection, schedule: Q01DX009 (ip), vehicle: Klucel (hydroxypropylcellulose) (HPC)
[11] = dose: 200.0 mg/kg/injection, schedule: Q04DX003 (ip), vehicle: Klucel (hydroxypropylcellulose) (HPC)
[12] = dose: 400.0 mg/kg/injection, schedule: Q04DX003 (ip), vehicle: Klucel (hydroxypropylcellulose) (HPC)
[13] = dose: 100.0 mg/kg/injection, schedule: Q01DX009 (ip), vehicle: saline with Tween-80
[14] = dose: 100.0 mg/kg/injection, schedule: Q04DX002 (ip), vehicle: gum acacia
[15] = dose: 200.0 mg/kg/injection, schedule: Q04DX002 (ip), vehicle: gum acacia
[16] = dose: 400.0 mg/kg/injection, schedule: Q04DX002 (ip), vehicle: gum acacia
[17] = dose: 100.0 mg/kg/injection, schedule: Q04DX003 (ip), vehicle: saline with Tween-80
[18] = dose: 200.0 mg/kg/injection, schedule: Q04DX003 (ip), vehicle: saline with Tween-80
[19] = dose: 100.0 mg/kg/injection, schedule: Q04DX002 (ip), vehicle: saline
[20] = dose: 200.0 mg/kg/injection, schedule: Q04DX002 (ip), vehicle: saline
[21] = dose: 400.0 mg/kg/injection, schedule: Q04DX002 (ip), vehicle: saline
[22] = dose: 100.0 mg/kg/injection, schedule: Q01DX009 (ip), vehicle: saline
[23] = dose: 100.0 mg/kg/injection, schedule: Q04DX003 (ip), vehicle: saline

Measured: T/C

CSc1ccccc1N=Cc1cc(Cl)ccc1O
inactive: [1] 90 % of control

CCOC(=O)C1(CC)CNCC(CC)(C(=O)OCC)C1=O (configuration not stated)
inactive: dose: 50.0 mg/kg/injection, schedule: Q01DX001 (ip), vehicle: saline 103 % of control | [2] 104 % of control | [3] 101 % of control | [4] 97 % of control

CC1(C)OCC(C2OC3OC(C)(C)OC3C2OS(C)(=O)=O)O1 (configuration not stated)
inactive: [5] 101 % of control | [6] 103 % of control | [7] 97 % of control

CN(C)NC(=O)/C=C/c1ccccc1
inactive: [8] 112 % of control | [9] 94 % of control | [10] 102 % of control | [11] 100 % of control | [12] 87 % of control

NC(N)=N/N=C(/c1ccccc1)c1ccc(N)cc1
inactive: dose: 3.5 mg/kg/injection, schedule: Q01DX Z (oral), vehicle: carboxymethylcellulose (CMC) 102 % of control | dose: 75.0 mg/kg/injection, schedule: Q01DX Z (oral), vehicle: carboxymethylcellulose (CMC) 102 % of control | dose: 150.0 mg/kg/injection, schedule: Q01DX Z (oral), vehicle: carboxymethylcellulose (CMC) 98 % of control | dose: 300.0 mg/kg/injection, schedule: Q01DX Z (oral), vehicle: carboxymethylcellulose (CMC) 104 % of control

C#CC(O)(c1ccccc1)c1ccc(N2CCOCC2)cc1 (configuration not stated)
inactive: [9] 96 % of control | [11] 96 % of control | [12] 96 % of control

CC(=O)OC1=C(OC(C)=O)N(S(=O)(=O)c2ccc(C)cc2)CCc2ccccc21
inactive: [5] 97 % of control | [6] 94 % of control | [7] 100 % of control

O=C(O)/C=C(/C(=O)O)c1cccn1Cc1ccccc1
inactive: dose: 25.0 mg/kg/injection, schedule: Q01DX009 (ip), vehicle: saline with Tween-80 110 % of control | dose: 50.0 mg/kg/injection, schedule: Q01DX009 (ip), vehicle: saline with Tween-80 100 % of control | [13] 102 % of control

Cc1ccccc1NC(=S)Nc1ccccc1
inactive: [14] 96 % of control | [15] 96 % of control | [16] 89 % of control

C=C1C(O)CC2CC1C2(C)C (configuration not stated)
inactive: [17] 92 % of control | [18] 92 % of control

C=CCc1ccc(OC(C)OCCOCCOCC)c(OC)c1 (configuration not stated)
inactive: [19] 92 % of control | [20] 96 % of control | [21] 101 % of control

Nc1ccc2c(c1)/C(=N/O)c1cc(Br)ccc1-2
inactive: [5] 110 % of control | [6] 102 % of control | [7] 100 % of control

O=C(O)C12CCC(CCC1O)C2 (configuration not stated)
inactive: dose: 75.0 mg/kg/injection, schedule: Q01DX001 (ip), vehicle: other 102 % of control | dose: 150.0 mg/kg/injection, schedule: Q01DX001 (ip), vehicle: other 100 % of control | dose: 300.0 mg/kg/injection, schedule: Q01DX001 (ip), vehicle: other 100 % of control

CC1(C)N=C(N)N=C(N)N1c1ccc(OCC(=O)N2CCOCC2)c(Cl)c1
inactive: dose: 12.5 mg/kg/injection, schedule: Q01DX009 (ip), vehicle: saline 98 % of control | dose: 25.0 mg/kg/injection, schedule: Q01DX009 (ip), vehicle: saline 98 % of control | dose: 50.0 mg/kg/injection, schedule: Q01DX009 (ip), vehicle: saline 95 % of control | [22] 101 % of control

COc1ccc(Cl)cc1NC(=O)c1ccccc1Cl
inactive: [8] 95 % of control | [10] 102 % of control | dose: 400.0 mg/kg/injection, schedule: Q01DX009 (ip), vehicle: Klucel (hydroxypropylcellulose) (HPC) 101 % of control

CCc1nnnn1C12CC3CC(CC(C3)C1)C2
inactive: [23] 102 % of control

CC(C)C1NC(=O)C2CCCN2C1=O (configuration not stated)
inactive: dose: 100.0 mg/kg/injection, schedule: Q04DX003 (ip), vehicle: saline sonified 98 % of control | dose: 200.0 mg/kg/injection, schedule: Q04DX003 (ip), vehicle: saline sonified 96 % of control | dose: 400.0 mg/kg/injection, schedule: Q04DX003 (ip), vehicle: saline sonified 97 % of control

O=S(=O)(O)C(Cl)c1ccccc1 (configuration not stated)
inactive: [19] 105 % of control | [20] 102 % of control | [21] 98 % of control

COC(=O)C1(C(=O)OC)CCC=CC1=O
inactive: [13] 107 % of control | [17] 97 % of control | dose: 200.0 mg/kg/injection, schedule: Q01DX009 (ip), vehicle: saline with Tween-80 93 % of control | [18] 101 % of control | dose: 400.0 mg/kg/injection, schedule: Q01DX009 (ip), vehicle: saline with Tween-80 109 % of control | dose: 400.0 mg/kg/injection, schedule: Q04DX003 (ip), vehicle: saline with Tween-80 106 % of control

C[CH2][Hg][S]c1nsc([S][Hg][CH2]C)n1
inactive: dose: 1.56 mg/kg/injection, schedule: Q01DX009 (ip), vehicle: Klucel (hydroxypropylcellulose) (HPC) 110 % of control | dose: 3.12 mg/kg/injection, schedule: Q01DX009 (ip), vehicle: Klucel (hydroxypropylcellulose) (HPC) 119 % of control | dose: 6.25 mg/kg/injection, schedule: Q01DX009 (ip), vehicle: Klucel (hydroxypropylcellulose) (HPC) 121 % of control | dose: 12.5 mg/kg/injection, schedule: Q01DX009 (ip), vehicle: Klucel (hydroxypropylcellulose) (HPC) 117 % of control | dose: 25.0 mg/kg/injection, schedule: Q01DX009 (ip), vehicle: Klucel (hydroxypropylcellulose) (HPC) 100 % of control

CC(=O)OC(C[N+](=O)[O-])C(Cl)(Cl)Cl (configuration not stated)
inactive: dose: 6.25 mg/kg/injection, schedule: Q01DX009 (ip), vehicle: saline sonified 107 % of control | dose: 12.5 mg/kg/injection, schedule: Q01DX009 (ip), vehicle: saline sonified 107 % of control | dose: 12.5 mg/kg/injection, schedule: Q04DX003 (ip), vehicle: Klucel (hydroxypropylcellulose) (HPC) 97 % of control | dose: 25.0 mg/kg/injection, schedule: Q01DX009 (ip), vehicle: saline sonified 106 % of control | dose: 25.0 mg/kg/injection, schedule: Q04DX003 (ip), vehicle: Klucel (hydroxypropylcellulose) (HPC) 103 % of control

O=C(O)C(Cc1ccc(O)cc1)NC(=O)N(c1ccccc1)c1ccccc1 (configuration not stated)
inactive: [2] 95 % of control | [3] 103 % of control | [4] 106 % of control

CC(C)(C)C(=O)CC(=O)C(C)(C)C.CC(C)(C)C(=O)CC(=O)C(C)(C)C.CC(C)(C)C(=O)CC(=O)C(C)(C)C.[Co]
inactive: [14] 107 % of control | [15] 90 % of control | [16] 93 % of control

CC1CCC(O)C1O (configuration not stated)
inactive: [22] 105 % of control | [23] 94 % of control | dose: 200.0 mg/kg/injection, schedule: Q01DX009 (ip), vehicle: saline 105 % of control | dose: 200.0 mg/kg/injection, schedule: Q04DX003 (ip), vehicle: saline 97 % of control | dose: 400.0 mg/kg/injection, schedule: Q01DX009 (ip), vehicle: saline 102 % of control | dose: 400.0 mg/kg/injection, schedule: Q04DX003 (ip), vehicle: saline 97 % of control

Nc1ccc(Sc2ccc(N)cc2)cc1
inactive: dose: 12.5 mg/kg/injection, schedule: Q04DX002 (ip), vehicle: Klucel (hydroxypropylcellulose) (HPC) 106 % of control | dose: 25.0 mg/kg/injection, schedule: Q04DX002 (ip), vehicle: Klucel (hydroxypropylcellulose) (HPC) 116 % of control | dose: 50.0 mg/kg/injection, schedule: Q04DX002 (ip), vehicle: Klucel (hydroxypropylcellulose) (HPC) 106 % of control | dose: 100.0 mg/kg/injection, schedule: Q04DX002 (ip), vehicle: Klucel (hydroxypropylcellulose) (HPC) 103 % of control

Cn1c(=O)n(O)c(=O)c2ccccc21
inactive: dose: 50.0 mg/kg/injection, schedule: Q01DX001 (ip), vehicle: saline with Tween-80 96 % of control | [1] 109 % of control | dose: 200.0 mg/kg/injection, schedule: Q01DX001 (ip), vehicle: saline with Tween-80 91 % of control

CC1CCC2C(C1)N(c1ccccc1)OC2(C)C (configuration not stated)
inactive: [9] 100 % of control | [11] 94 % of control | [12] 102 % of control
